The source of these data is publication PMC4721923 (PLoS ONE, 2015).

Usually IC50 stands for the concentration that gives 50% inhibition. One may read the inhibition as how much of the control response was suppressed.

Where two headings read alike, the source gives them in different places. Bounds are passed on as bounds.

The target of one series is T1, OCT3 (Homo sapiens, UniProt O75751).
T1 construct: expressed in transfected cells; host or cells: HEK293 (HEK-OCT3)
T1 sequence (O75751 1-556): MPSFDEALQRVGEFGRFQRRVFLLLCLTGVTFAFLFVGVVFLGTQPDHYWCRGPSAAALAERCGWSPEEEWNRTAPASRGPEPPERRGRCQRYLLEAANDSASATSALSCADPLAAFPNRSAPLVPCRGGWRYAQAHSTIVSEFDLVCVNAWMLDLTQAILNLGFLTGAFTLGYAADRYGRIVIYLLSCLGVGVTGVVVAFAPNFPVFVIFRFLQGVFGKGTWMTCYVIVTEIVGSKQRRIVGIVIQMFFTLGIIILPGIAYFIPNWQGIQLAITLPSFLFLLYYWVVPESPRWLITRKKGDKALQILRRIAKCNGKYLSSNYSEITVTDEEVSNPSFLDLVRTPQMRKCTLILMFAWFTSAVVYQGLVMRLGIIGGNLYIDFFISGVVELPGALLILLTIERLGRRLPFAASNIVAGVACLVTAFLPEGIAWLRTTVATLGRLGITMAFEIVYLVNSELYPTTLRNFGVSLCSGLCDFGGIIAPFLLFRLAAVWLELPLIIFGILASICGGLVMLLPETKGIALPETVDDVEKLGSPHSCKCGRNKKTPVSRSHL
In words: Flow cytometric ASP+-uptake inhibition, HEK-OCT3. Type of series: cell-based. The note with it: for potency relative to TPA at OCT3: from IC50 values, p ≤ 0.05. The protocol: The previously described fluorescent substrate of organic cation transporters, 4-(4-dimethylaminostyryl)-N-methylpyridinium (ASP^+), was used to determine the function of OCT1 and OCT3 by flow cytometry in the absence and the presence of bendamustine and selected bendamustine esters. HEK293 cells expressing the transporter of interest were trypsinized and washed twice with PBS, prior to re-suspension of 0.5 · 10^6 cells in 500 μL of PBS containing 2% (v/v) FCS. The cells were incubated with ASP^+ (100 μM stock solution in PBS containing 10% DMSO) for 5 minutes, allowing for cellular accumulation, and subsequently analyzed with a FACSCalibur flow cytometer. ASP^+ was excited at 488 nm and the fluorescence was measured using a 530/30 nm and a 585/42 band-pass filter. At least 1 · 10^4 single cells were analyzed by appropriate FSC/SSC gating.
The cells were pre-incubated with the respective test compound at different concentrations at room temperature for 10 minutes. Afterwards, ASP^+ was added to a final concentration of 1 μM, and the samples were incubated at 37°C in the dark for 5 minutes. Subsequently, the cells were washed, re-suspended in ice-cold PBS/FCS and stored on ice in the dark until measurement.
The normalized mean fluorescence intensities of the OCT expressing cells, set to 100% in the absence of an inhibitor, were calculated by subtracting the mean fluorescence intensity of unspecific ASP^+ uptake into HEK-Co control cells. The normalized fluorescence intensities in the presence of an inhibitor were plotted against the logarithm of the concentrations of the test compounds to calculate IC50 values. The “log (inhibitor) vs. normalized response-variable slope” equation of GraphPad Prism 5.01 was used for this purpose.
For orientation: In flow cytometry, cells or beads pass a laser one at a time.

The subject of series [1] is Jurkat cells (acute T-cell leukemia). In words: Chemosensitivity assay (MTT-assay), Jurkat. Type of series: cell-based, human. The conditions noted are these: 96 hours of incubation, mean ± SEM. The protocol: (§1) Depending on the characteristics of the cells, two different assays were performed. For adherently growing cells (HaCaT, HT-29, NCI-H460, SK-MEL-3, MG-63, Capan-1), cytotoxic and cytocidal effects were determined in the crystal violet assay, whereas for loosely adherent cells (LNCaP, SK-ES-1) and cells growing in suspension (HEL 92.1.7, Jurkat, U-937) the MTT-assay was used with minor modifications. In brief, 1.5 · 10^3 (HaCaT, HT-29, NCI-H460, SK-MEL-3, MG-63, Capan-1) or 5 · 10^3 (Jurkat, U-937, HEL92.1.7, LNCaP, SK-ES-1) cells per well were seeded into flat-bottom 96-well plates (Sarstedt, Nümbrecht, Germany). All compounds were used as solutions prepared in DMSO and tested at final concentrations (8 replicates per concentration) of 1, 3, 10, 30 and 50 μM. In case of the vehicle control and test compounds, the final DMSO concentration amounted to 0.1%. Absorbance was measured at 580 nm in a 96-well plate reader (GENios pro microplate reader, Tecan, Salzburg, Austria). Effects were quantified as previously described for both assays.
Background: Tetrazolium assays rely on reduction of a dye to a coloured formazan, in cell work by metabolically active cells.

The subject of series [2] is SK-ES-1 cells (Ewing's sarcoma). The experiment in a line: Chemosensitivity assay (MTT-assay), SK-ES-1. Type of series: cell-based, human. The conditions noted are these: 96 hours of incubation, mean ± SEM. The method, then:
as §1

Series [3] relates to Capan-1 cells (pancreatic adenocarcinoma). The experiment in a line: Chemosensitivity assay (crystal violet assay), Capan-1. Format: cell-based, human. The note with it: 96 hours of incubation, mean ± SEM. The method, then:
as §1

For series [4], the system named is HT-29 cells (colorectal adenocarcinoma). In words: Chemosensitivity assay (crystal violet assay), HT-29. Type of series: cell-based, human. The conditions noted are these: 96 hours of incubation, mean ± SEM. The protocol: as §1
The subject of another series is NCI-H460 cells. In words: Stability in the presence of cells (HPLC). Type of series: in vitro ADME, human. The note with it: incubation period of 10 minutes. The method, then:
The recently reported validated HPLC method was applied.
Samples were measured immediately before the incubation (t = 0 minutes) and after 10 minutes of incubation at 25°C (t = 10 minutes). […] (TIF) Click here for additional data file.

Series [5] has as its system HaCaT cells (spontaneously immortalized human keratinocytes). In words: Kinetic toxicity assay (crystal violet) on HaCaT cells. The note with it: kinetic assay, 0.1, 1 and 10 μM, 5 days. Type of series: cell-based. The method, then:
as §1, with “All compounds were used as solutions prepared in DMSO and tested at final concentrations (8 replicates per concentration) of 1, 3, 10, 30 and 50 μM.” left out

Regarding `Cn1c(CCCC(=O)O)nc2cc(N(CCCl)CCCl)ccc21` [Compound 1, bendamustine, reference compound], the 50% inhibitory concentration (IC50) against OCT3 is > 200 µM; in series [1], 43.4 ± 4.8 µM; in series [1] (Homo sapiens, 96 h), 43 µM; in series [2] it was 9.6 ± 0.3 µM; in series [2] (Homo sapiens, SK-ES1, 96 h) it was ~10 µM; in series [3], 18.9 ± 4.5 µM. For the same compound, the IC50 is < 20 µM in series [3] (Homo sapiens, CAPAN-1, 96 h); “ineffective” in series [4]; > 100 µM in series [4] (Homo sapiens, read-out: IC50). For the same compound, the inhibition at 200 µM at OCT3 (read-out: inhibition of OCT3) was found to be 37%. In addition, the “stability in the presence of cells” value in the series on NCI-H460 cells is reported as “Other decomposition products were not detected”.

As for `COC(=O)CCCc1nc2cc(N(CCCl)CCCl)ccc2n1C` [Compound 2], the IC50 against OCT3 is 5.1 ± 1.4 µM; in series [1] (Homo sapiens, 96 h), 3.1 ± 0.1 µM; in series [2], 0.18 ± 0.02 µM; in series [2] (Homo sapiens, SK-ES1, 96 h), ~0.2 µM; in series [3] (Homo sapiens, CAPAN-1, 96 h) it was 0.6 ± 0.04 µM; in series [4] (Homo sapiens, read-out: IC50) it was 9.4 ± 0.4 µM. Also, the “potency relative to TPA at OCT3” value on OCT3 was “approximately four”. Moreover, in the series on NCI-H460 cells, the “stability in the presence of cells” value is “Other decomposition products were not detected”.

On to `Cn1c(CCCC(=O)OCCN2CCOCC2)nc2cc(N(CCCl)CCCl)ccc21` [Compound 4], for which the IC50 at OCT3 came to 5.1 ± 0.02 µM; in series [1] (Homo sapiens, 96 h), 3.2 ± 1 µM; in series [2], 0.91 ± 0.08 µM; in series [2] (Homo sapiens, SK-ES1, 96 h) it was 0.9 µM; in series [3] (Homo sapiens, CAPAN-1, 96 h) it was 1.4 ± 0.01 µM; in series [4] (Homo sapiens, read-out: IC50), 9 ± 0.5 µM. Further, the “potency relative to TPA at OCT3” value at OCT3 was “approximately four”. Moreover, the “toxicity on HaCaT cells compared to tumor cells” value in series [5] is “preferential toxicity against tumor cells”. Moreover, the “stability in the presence of cells” value in the series on NCI-H460 cells was “Other decomposition products were not detected”.

On to `Cn1c(CCCC(=O)OCCN2CCCC2)nc2cc(N(CCCl)CCCl)ccc21` [Compound 5], for which the IC50 at OCT3 is 3.41 ± 0.16 µM; in series [1] (Homo sapiens, 96 h), 0.61 ± 0.02 µM; in series [2] (Homo sapiens, SK-ES1, 96 h), 0.09 ± 0.01 µM; in series [3] (Homo sapiens, CAPAN-1, 96 h), 0.12 ± 0.02 µM; in series [4] (Homo sapiens, read-out: IC50), 1.1 ± 0.1 µM. Moreover, at OCT3, the “potency relative to TPA at OCT3” value is listed as “approximately four”. The “toxicity on HaCaT cells compared to tumor cells” value in series [5] is listed as “preferential toxicity against tumor cells”. For the same compound, the “stability in the presence of cells” value with NCI-H460 cells is reported as “Other decomposition products were not detected”.
